Broadly, the IC50 is the concentration at which inhibition is half-maximal.

This assay concerns the target T1, HEK-Blue-hTLR9 cells (Homo sapiens, UniProt Q9NR96).
T1 construct: expressed in transfected cells; host or cells: HEK-Blue-hTLR9 cells (HEK293-derived reporter line)
T1 sequence (Q9NR96 26-1032): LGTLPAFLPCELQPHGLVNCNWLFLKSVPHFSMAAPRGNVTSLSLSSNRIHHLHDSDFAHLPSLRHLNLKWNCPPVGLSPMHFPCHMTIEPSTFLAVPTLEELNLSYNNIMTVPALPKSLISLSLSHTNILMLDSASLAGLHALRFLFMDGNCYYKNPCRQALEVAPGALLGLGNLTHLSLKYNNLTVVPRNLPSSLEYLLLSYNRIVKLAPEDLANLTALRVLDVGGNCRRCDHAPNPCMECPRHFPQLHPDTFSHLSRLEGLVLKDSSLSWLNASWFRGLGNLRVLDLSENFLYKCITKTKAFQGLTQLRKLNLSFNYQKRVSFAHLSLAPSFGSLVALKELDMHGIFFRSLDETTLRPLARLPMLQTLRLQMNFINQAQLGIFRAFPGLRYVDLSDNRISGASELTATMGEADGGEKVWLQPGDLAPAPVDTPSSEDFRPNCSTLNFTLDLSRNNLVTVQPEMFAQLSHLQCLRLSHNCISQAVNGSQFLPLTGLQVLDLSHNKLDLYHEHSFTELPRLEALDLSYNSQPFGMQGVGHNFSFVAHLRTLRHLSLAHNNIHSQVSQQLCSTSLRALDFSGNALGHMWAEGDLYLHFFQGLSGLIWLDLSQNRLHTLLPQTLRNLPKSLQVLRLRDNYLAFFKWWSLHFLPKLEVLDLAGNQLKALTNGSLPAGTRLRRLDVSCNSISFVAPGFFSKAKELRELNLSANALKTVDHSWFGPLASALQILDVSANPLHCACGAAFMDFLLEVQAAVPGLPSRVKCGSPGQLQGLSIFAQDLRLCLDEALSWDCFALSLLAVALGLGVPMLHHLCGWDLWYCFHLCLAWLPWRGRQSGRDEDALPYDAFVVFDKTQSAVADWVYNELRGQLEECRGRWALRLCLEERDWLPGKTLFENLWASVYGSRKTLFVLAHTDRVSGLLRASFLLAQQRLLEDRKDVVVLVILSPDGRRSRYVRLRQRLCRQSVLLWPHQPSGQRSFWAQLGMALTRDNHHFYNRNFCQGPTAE
As to the kind of experiment: HEK-Blue-hTLR9 cell inhibition assay. Type of assay: cell-based. The note with it: ODN2006 1 µM, 16 h, OD 620 nm, read-out: TLR9 IC50. The procedure:
HEK-Blue-hTLR7/8/9 cell inhibition assay
1. HEK-Blue-hTLR7/8 cells (1 × 10^4 cells/well) and HEK-Blue-hTLR9 cells (1.5 × 10^4 cells/well) were seeded in a 384-well cell culture plate, with a volume of 30 µL per well. The plate was incubated at 37°C in a 5% CO2 incubator for 4 h. 2. The compound was prepared with DMSO and diluted in DMEM medium to 10 concentrations (1:3 dilution), with final concentrations of 10000, 3333.3, 1111.1, 370.4, 123.5, 41.2, 13.7, 4.6, 1.5, and 0.5 nM; R848 was prepared with DMSO and diluted in DMEM medium, with final concentrations of 0.8 µM (HEK-Blue-hTLR7) and 3 µM (HEK-Blue-hTLR8); ODN2006 was prepared with endotoxin-free water and diluted in DMEM medium, with a final concentration of 1 µM. 3. Cells treated with DMSO were used as the blank control group, while cells treated solely with Resiquimod (R848) were used as the positive control group for HEK-Blue-hTLR7/8, and cells treated solely with ODN2006 were used as the positive control group for HEK-Blue-hTLR9. Cells treated with the test compound together with R848 or ODN2006 were used as the test group. Two parallel wells were set for each group and were placed at 37°C in a 5% CO2 incubator for incubation. 4. After being incubated for 4 h, the 384-well plate of HEK-Blue-hTLR7/8 was taken out from the incubator, and R848 alone or both R848 and the diluted compound were separately added into each well. The plate was placed at 37°C in a 5% CO2 incubator for incubation for 16 h; the 384-well plate of HEK-Blue-hTLR9 was taken out from the incubator, and ODN2006 alone or both ODN2006 and the diluted compound were added separately to each well. The plate was incubated at 37°C in a 5% CO2 incubator for 16 h. 5. After being incubated for 16 h, the 384-well plate was removed from the incubator and centrifuged at 1000 rpm for 1 minute. The optical density value of each well at 620 nm was measured using a multifunctional microplate reader. 6. The cell inhibition rate was calculated as (1-(OD620 test group-OD620 blank group)/(OD620 positive group-OD620 blank group))×100%, and the half maximal inhibitory concentration (IC50) was calculated through curve fitting. Table 1: Activity of the compounds of the present disclosure in HEK-Blue-hTLR7/8/9 cellular assays

Some results are limits rather than exact numbers.

Regarding `CN(C)[C@H]1CC[C@H](c2nnc([C@]34CN(c5ccc(C#N)c6ncccc56)C[C@@]3(C(F)(F)F)C4)o2)CC1` [Compound 21, 5-((1S,5R)-1-(5-((1R,4S)-4-(dimethylamino)cyclohexyl)-1,3,4-oxadiazol-2-yl)-5-(trifluoromethyl)-3-azabicyclo[3.1.0]hexan-3-yl)quinoline-8-carbonitrile], the IC50 was above 1 µM.
As for `N#Cc1ccc(N2C[C@]3(c4nnc(C5=CCNC5)o4)C[C@]3(C(F)(F)F)C2)c2cccnc12` [Compound 22, 5-((1S,5R)-1-(5-(2,5-dihydro-1H-pyrrol-3-yl)-1,3,4-oxadiazol-2-yl)-5-(trifluoromethyl)-3-azabicyclo[3.1.0]hexan-3-yl)quinoline-8-carbonitrile], the IC50 is above 10 µM.
As for `CN1CCC(n2cnc([C@]34CN(c5ccc(C#N)c6ncccc56)C[C@@]3(C(F)(F)F)C4)n2)CC1` [Compound 23, 5-((1S,5R)-1-(1-(1-methylpiperidin-4-yl)-1H-1,2,4-triazol-3-yl)-5-(trifluoromethyl)-3-azabicyclo[3.1.0]hexan-3-yl)quinoline-8-carbonitrile], the half-inhibitory concentration (IC50) is above 1 µM.
Take `N#Cc1ccc(N2C[C@]3(c4nnc(C#CCN5CCOCC5)o4)C[C@]3(C(F)(F)F)C2)c2cccnc12` [Compound 24, 5-((1S,5R)-1-(5-(3-morpholinoprop-1-yn-1-yl)-1,3,4-oxadiazol-2-yl)-5-(trifluoromethyl)-3-azabicyclo[3.1.0]hexan-3-yl)quinoline-8-carbonitrile]: the IC50 is above 10 µM.
Turning to `CN(C)CC#Cc1nnc([C@]23CN(c4ccc(C#N)c5ncccc45)C[C@@]2(C(F)(F)F)C3)o1` [Compound 25, 5-((1S,5R)-1-(5-(3-(dimethylamino)prop-1-yn-1-yl)-1,3,4-oxadiazol-2-yl)-5-(trifluoromethyl)-3-azabicyclo[3.1.0]hexan-3-yl)quinoline-8-carbonitrile], the IC50 is below 1 µM.
The value for `CC1(C)CC(Cc2nnc([C@]34CN(c5ccc(C#N)c6ncccc56)C[C@@]3(C(F)(F)F)C4)o2)CC(C)(C)N1` [Compound 26, 5-((1S,5R)-1-(5-((2,2,6,6-tetramethylpiperidin-4-yl)methyl)-1,3,4-oxadiazol-2-yl)-5-(trifluoromethyl)-3-azabicyclo[3.1.0]hexan-3-yl)quinoline-8-carbonitrile] was above 1 µM; that for `N#Cc1ccc(N2C[C@]3(c4nnc(N5CCOCC5)o4)C[C@]3(C(F)(F)F)C2)c2cccnc12` [Compound 27, 5-((1S,5R)-1-(5-morpholino-1,3,4-oxadiazol-2-yl)-5-(trifluoromethyl)-3-azabicyclo[3.1.0]hexan-3-yl)quinoline-8-carbonitrile] was above 10 µM; that for `CN1CC(Cc2nnc([C@]34CN(c5ccc(C#N)n6ncc(F)c56)C[C@@]3(C(F)(F)F)C4)o2)C1` [Compound 30, 3-fluoro-4-((1S,5R)-1-(5-((1-methylazetidin-3-yl)methyl)-1,3,4-oxadiazol-2-yl)-5-(trifluoromethyl)-3-azabicyclo[3.1.0]hexan-3-yl)pyrazolo[1,5-a]pyridine-7-carbonitrile] was above 1 µM.
The value for `CN1CCC(Oc2nnc([C@]34CN(c5ccc(C#N)n6ncc(F)c56)C[C@@]3(C(F)(F)F)C4)o2)CC1` [Compound 31, 3-fluoro-4-((1S,5R)-1-(5-((1-methylpiperidin-4-yl)oxy)-1,3,4-oxadiazol-2-yl)-5-(trifluoromethyl)-3-azabicyclo[3.1.0]hexan-3-yl)pyrazolo[1,5-a]pyridine-7-carbonitrile] was above 1 µM.
For the molecule `N#Cc1ccc(N2C[C@]3(c4nnc(C5(F)CNC5)o4)C[C@]3(C(F)(F)F)C2)c2cccnc12` [Compound 32, 5-((1S,5R)-1-(5-(3-Fluoroazetidin-3-yl)-1,3,4-oxadiazol-2-yl)-5-(trifluoromethyl)-3-azabicyclo[3.1.0]hexan-3-yl)quinoline-8-carbonitrile], the IC50 is above 10 µM.
Regarding `N#Cc1ccc(N2C[C@]3(c4nnc(C5CCNCC5F)o4)C[C@]3(C(F)(F)F)C2)c2cccnc12` (stereo partly shown) [Compound 33], the IC50 is above 1 µM.
Turning to `CN1CCC(c2nnc([C@]34CN(c5ccc(C#N)c6ncccc56)C[C@@]3(C(F)(F)F)C4)o2)CC1=O` (stereo partly shown) [Compound 34], the IC50 is above 10 µM.
The value for `N#Cc1ccc(N2C[C@]3(c4nnc(CC5CNC5)o4)C[C@]3(C(F)(F)F)C2)c2cccnc12` [Compound 35, 5-((1S,5R)-1-(5-(azetidin-3-ylmethyl)-1,3,4-oxadiazol-2-yl)-5-(trifluoromethyl)-3-azabicyclo[3.1.0]hexan-3-yl)quinoline-8-carbonitrile] was above 1 µM; that for `CN1CC(Cc2nnc([C@]34CN(c5ccc(C#N)c6ncccc56)C[C@@]3(C(F)(F)F)C4)o2)C1` [Compound 36, 5-((1S,5R)-1-(5-((1-methylazetidin-3-yl)methyl)-1,3,4-oxadiazol-2-yl)-5-(trifluoromethyl)-3-azabicyclo[3.1.0]hexan-3-yl)quinoline-8-carbonitrile] was above 1 µM.
Under `CN1CCC(Cc2nnc([C@]34CN(c5ccc(C#N)c6ncccc56)C[C@@]3(C(F)(F)F)C4)o2)CC1` [Compound 37, 5-((1S,5R)-1-(5-((1-methylpiperidin-4-yl)methyl)-1,3,4-oxadiazol-2-yl)-5-(trifluoromethyl)-3-azabicyclo[3.1.0]hexan-3-yl)quinoline-8-carbonitrile] stands above 1 µM; under `CN1CCC(Cc2nnc([C@]34CN(c5ccc(C#N)c6ncccc56)C[C@@]3(C(F)(F)F)C4)n2C)CC1` [Compound 38, 5-((1S,5R)-1-(4-methyl-5-((1-methylpiperidin-4-yl)methyl)-4H-1,2,4-triazol-3-yl)-5-(trifluoromethyl)-3-azabicyclo[3.1.0]hexan-3-yl)quinoline-8-carbonitrile], above 10 µM; under `CN1CC(c2nnc([C@]34CN(c5ccc(C#N)c6ncccc56)C[C@@]3(C(F)(F)F)C4)o2)C1` [Compound 39, 5-((1S,5R)-1-(5-(1-methylazetidin-3-yl)-1,3,4-oxadiazol-2-yl)-5-(trifluoromethyl)-3-azabicyclo[3.1.0]hexan-3-yl)quinoline-8-carbonitrile], above 1 µM.
The value for `N#Cc1ccc(N2C[C@]3(c4nnc(CN5CCOCC5)o4)C[C@]3(C(F)(F)F)C2)c2cccnc12` [Compound 40, 5-((1S,5R)-1-(5-(morpholinomethyl)-1,3,4-oxadiazol-2-yl)-5-(trifluoromethyl)-3-azabicyclo[3.1.0]hexan-3-yl)quinoline-8-carbonitrile] was above 10 µM; that for `N#Cc1ccc(N2C[C@]3(c4nnc(CN5CCCC5)o4)C[C@]3(C(F)(F)F)C2)c2cccnc12` [Compound 41, 5-((1S,5R)-1-(5-(Pyrrolidin-1-ylmethyl)-1,3,4-oxadiazol-2-yl)-5-(trifluoromethyl)-3-azabicyclo[3.1.0]hexan-3-yl)quinoline-8-carbonitrile] was above 10 µM.

Values taken from patent EP4806891A1 (Kangbaida (Sichuan) Biotechnology Co., Ltd., priority 2023, dated 2025).
